Laboratory results reported in PMC12311259, “Antifibrotic effects of specific targeting of the 5‐hydroxytryptamine 2B receptor (5‐HT2BR) in murine models and ex vivo models of scleroderma skin” (Arthritis & Rheumatology (Hoboken, N.j.), 2025).

How the values were obtained:
[1] = system: cGvHD-induced pulmonary fibrosis; test: Sclerodermatous cGvHD mouse model, pulmonary fibrosis; assay type: in vivo
Protocol: AM1476 was dissolved in sterile distilled water for the ex vivo and in vivo experiments. A concentration of 30 μM was applied for the ex vivo experiment. For the in vivo experiments, 1, 3, or 10 mg/kg was administered orally once or twice daily.
The B10.D2→BALB/c (H‐2d) minor histocompatibility antigen–mismatched model was performed as described.[9], [10] Briefly, female BALB/c (H‐2d) mice were purchased from Janvier. Male B10.D2 (H‐2d) mice were initially purchased from Jackson Laboratory. All mice were maintained in specific pathogen‐free conditions with sterile pellet food and water and a normal day–night cycle. For isolation of unfractionated bone marrow cells, tibial and femoral bones were prepared under sterile conditions. Phosphate buffered saline (PBS) was used to flush bone marrow cells from bone marrow cavities. Subsequently, bone marrow cells were filtered through 70‐μm nylon meshes (BD Biosciences), followed by erythrocyte hemolysis. The remaining bone marrow cells were kept on ice until transplantation. Transplantation of bone marrow cells and splenocytes was performed as follows: Recipient mice (BALB/c [H‐2d]) eight weeks of age received total body irradiation with 750 cGy. Six hours after irradiation, all BALB/c (H‐2d) recipients received bone marrow from either BALB/c (H‐2d) in a syngeneic transplantation manner or B10.D2 (H‐2d) in an allogeneic transplantation manner. For transplantation, 5 × 10[6] splenocytes and 2 × 10[6] bone marrow cells from donor mice were resuspended in 0.2 mL of PBS and injected via tail veins.[9], [10] […] The outcome of treatment was analyzed seven weeks after transplantation. Eight mice per group were analyzed.
Skin samples were fixed in 4% formalin for six hours and embedded in paraffin. […] The dermal thickness was quantified on H&E‐stained sections using images captured with a light microscope (Nikon eclipse 80i) at 100‐fold magnification by manually measuring the distance between the epidermal‐dermal junction and the dermal‐subcutaneous fat junction at four sites per mouse.[15], [16] […] Histologic readouts were evaluation of the fibrotic area as the percentage of the total lung area in sirius red–stained sections (two sections per mouse) and quantification of pulmonary changes using the Ashcroft score (four sections per mouse).[17], [18]
The amount of collagen protein in skin and lung samples was determined by hydroxyproline assay.[19], [20] […] The absorbance was determined at 557 nm with a Spectra MAX 190 microplate spectrophotometer. Absolute values were determined using a standard curved generated with type I collagen (Sigma‐Aldrich).

[2] = system: healthy individuals; test: Phase 1 clinical trial, safety, tolerability and pharmacokinetic profile (NCT04691115); assay type: in vivo, human; conditions: for Any adverse event / Depressed level of consciousness / Dizziness / Gastrointestinal disorders / Headache / Nausea / Nervous system disorders / Presyncope / Serious adverse event / Syncope: fasted, N = 6
Source text: These findings prompted us to perform a phase 1 clinical trial investigating safety, tolerability, and the pharmacokinetic profile of AM1476 in healthy individuals (ClinicalTrials.gov identifier NCT04691115). […] An excerpt of the summary of adverse events is found in Supplementary Table S5. […] The anticipated clinical efficacy exposure was well covered by investigated doses.

[3] = target: T1, Serotonin (5-Hydroxytryptamine) 5-HT1B (hu) (Homo sapiens, UniProt P28222); test: Receptor binding, Eurofins Panlabs 271200
T1 construct: Eurofins Panlabs 271200
Source text: (§1) Effects were considered significant if AM1476's mean value was three or more SDs above the vehicle control mean in the agonist assay or three or more SDs below the positive control agonist (5‐nM α‐methylserotonin) mean in the antagonist assay. AM1476 was screened for selectivity against approximately 200 targets using a Eurofins Panlabs Spectrum screen panel including enzymatic and receptor binding assays.

[4] = target: T2, Histamine H1 (hu) (Homo sapiens, UniProt P35367); test: Functionality assay, GTPγS Binding, Eurofins Panlabs 313200; assay type: biochemical
T2 construct: Eurofins Panlabs 313200
Source text: as §1

[5] = target: T3, Adrenergic α1A (hu) (Homo sapiens, UniProt P35348); test: Functionality assay, IP1, Eurofins Panlabs 302040; assay type: cell-based
T3 construct: Eurofins Panlabs 302040
Source text: as §1

[6] = system: approximately 200 targets; test: Eurofins Panlabs Spectrum screen selectivity panel (enzymatic and receptor binding assays); conditions: no binding defined as <50% inhibition at 10 μM
Source text: as §1

[7] = target: T4, Serotonin (5-Hydroxytryptamine) 5-HT7 (hu) (Homo sapiens, UniProt P34969); test: Receptor binding, Eurofins Panlabs 272320
T4 construct: Eurofins Panlabs 272320
Source text: as §1

[8] = target: Serotonin (5-Hydroxytryptamine) 5-HT4 (gp) (Cavia porcellus, UniProt O70528); test: Receptor binding, Eurofins Panlabs 272000; design: species or system guinea pig
Source text: as §1

[9] = all three doses, vs vehicle-treated mice seven weeks after BMT

T4 sequence (P34969 whole entry): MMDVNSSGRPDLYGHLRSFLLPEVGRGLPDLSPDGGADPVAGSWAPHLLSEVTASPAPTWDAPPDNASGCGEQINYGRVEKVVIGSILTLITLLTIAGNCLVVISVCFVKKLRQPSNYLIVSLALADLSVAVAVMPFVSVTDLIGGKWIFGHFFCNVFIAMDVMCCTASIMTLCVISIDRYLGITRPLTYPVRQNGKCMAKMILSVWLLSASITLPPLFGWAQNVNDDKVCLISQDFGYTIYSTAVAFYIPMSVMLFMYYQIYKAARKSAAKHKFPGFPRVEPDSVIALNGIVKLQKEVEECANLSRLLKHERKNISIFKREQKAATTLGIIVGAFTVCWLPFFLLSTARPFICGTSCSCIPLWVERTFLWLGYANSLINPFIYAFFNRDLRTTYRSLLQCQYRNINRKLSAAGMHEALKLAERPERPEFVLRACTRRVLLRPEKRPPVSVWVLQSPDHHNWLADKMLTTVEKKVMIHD
T3 sequence (P35348 whole entry): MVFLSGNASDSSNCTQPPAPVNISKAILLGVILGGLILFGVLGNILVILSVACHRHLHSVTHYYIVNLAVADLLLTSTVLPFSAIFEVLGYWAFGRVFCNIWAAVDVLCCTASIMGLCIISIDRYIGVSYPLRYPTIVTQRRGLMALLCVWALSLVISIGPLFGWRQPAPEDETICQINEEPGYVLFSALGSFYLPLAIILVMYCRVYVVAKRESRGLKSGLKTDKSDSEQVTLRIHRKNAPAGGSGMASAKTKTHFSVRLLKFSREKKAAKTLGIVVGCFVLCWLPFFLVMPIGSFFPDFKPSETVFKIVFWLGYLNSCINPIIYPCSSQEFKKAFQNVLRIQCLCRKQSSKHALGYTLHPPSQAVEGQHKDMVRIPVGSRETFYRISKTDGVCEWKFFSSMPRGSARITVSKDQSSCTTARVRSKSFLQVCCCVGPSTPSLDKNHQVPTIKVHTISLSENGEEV
Sequence of Serotonin (5-Hydroxytryptamine) 5-HT4 (gp) (O70528 1-358 limits assumed): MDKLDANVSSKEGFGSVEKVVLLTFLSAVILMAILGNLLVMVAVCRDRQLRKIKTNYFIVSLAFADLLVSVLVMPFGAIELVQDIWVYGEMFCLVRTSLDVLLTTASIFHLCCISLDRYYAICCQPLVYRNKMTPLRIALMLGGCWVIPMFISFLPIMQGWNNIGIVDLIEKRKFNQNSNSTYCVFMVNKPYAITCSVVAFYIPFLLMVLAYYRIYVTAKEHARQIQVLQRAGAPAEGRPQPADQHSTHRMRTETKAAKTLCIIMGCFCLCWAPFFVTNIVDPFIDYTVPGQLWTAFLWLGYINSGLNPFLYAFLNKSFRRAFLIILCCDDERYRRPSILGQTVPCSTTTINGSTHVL
T2 sequence (P35367 whole entry): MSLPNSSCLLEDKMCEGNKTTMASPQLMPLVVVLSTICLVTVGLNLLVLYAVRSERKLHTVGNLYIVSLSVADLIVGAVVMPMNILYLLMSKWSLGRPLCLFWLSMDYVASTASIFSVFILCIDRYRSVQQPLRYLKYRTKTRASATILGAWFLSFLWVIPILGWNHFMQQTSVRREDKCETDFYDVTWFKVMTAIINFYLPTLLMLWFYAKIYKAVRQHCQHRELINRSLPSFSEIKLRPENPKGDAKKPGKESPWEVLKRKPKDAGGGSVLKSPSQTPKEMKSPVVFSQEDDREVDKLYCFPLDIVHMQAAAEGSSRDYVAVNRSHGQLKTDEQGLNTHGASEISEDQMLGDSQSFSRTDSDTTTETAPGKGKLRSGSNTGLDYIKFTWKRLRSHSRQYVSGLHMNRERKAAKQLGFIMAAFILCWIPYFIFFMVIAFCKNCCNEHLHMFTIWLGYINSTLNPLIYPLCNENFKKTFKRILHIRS
T1 sequence (P28222 whole entry): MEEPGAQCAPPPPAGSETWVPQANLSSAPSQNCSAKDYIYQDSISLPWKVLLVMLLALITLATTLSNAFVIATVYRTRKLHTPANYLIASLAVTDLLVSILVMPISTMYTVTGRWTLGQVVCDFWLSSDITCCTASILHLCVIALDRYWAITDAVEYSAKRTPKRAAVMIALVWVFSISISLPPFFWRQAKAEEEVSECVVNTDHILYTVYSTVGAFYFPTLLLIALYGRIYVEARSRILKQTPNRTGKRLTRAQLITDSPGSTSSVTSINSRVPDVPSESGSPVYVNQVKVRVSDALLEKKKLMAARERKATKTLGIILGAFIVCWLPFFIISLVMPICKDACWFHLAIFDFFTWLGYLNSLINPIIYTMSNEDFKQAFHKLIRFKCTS

## C[C@@H]1CN(C(=N)N)N=C1c1ccc(F)cc1O [AM1476]
[1]; 10 mg/kg qd
  hydroxyproline levels, lung, vs mice killed three weeks after BMT: below those of mice killed three weeks after BMT
[1]; [9]
  Ashcroft scores: reduced
  collagen-covered lung area: reduced
  hydroxyproline content, lung: reduced
[2]; 375 mg BID
  Any adverse event: 2 (33.3%) no. of subjects (%)
  Depressed level of consciousness: 0 no. of subjects (%)
  Dizziness: 1 (16.7%) no. of subjects (%)
  Gastrointestinal disorders: 2 (33.3%) no. of subjects (%)
  Headache: 2 (33.3%) no. of subjects (%)
  Nausea: 2 (33.3%) no. of subjects (%)
  Nervous system disorders: 2 (33.3%) no. of subjects (%)
  Presyncope: 0 no. of subjects (%)
  Serious adverse event: 0 no. of subjects (%)
  Syncope: 0 no. of subjects (%)
[2]; 500 mg BID
  Any adverse event: 4 (66.7%) no. of subjects (%)
  Depressed level of consciousness: 0 no. of subjects (%)
  Dizziness: 1 (16.7%) no. of subjects (%)
  Gastrointestinal disorders: 1 (16.7%) no. of subjects (%)
  Headache: 1 (16.7%) no. of subjects (%)
  Nausea: 1 (16.7%) no. of subjects (%)
  Nervous system disorders: 2 (33.3%) no. of subjects (%)
  Presyncope: 0 no. of subjects (%)
  Serious adverse event: 0 no. of subjects (%)
  Syncope: 0 no. of subjects (%)
[2]; healthy individuals
  serious adverse events: no serious adverse events were reported
  severity of adverse events: most of the adverse events were mild in severity
  tolerability: well tolerated
[2]; multiple-dose period
  time to steady state: by day two
[2]; single and multiple oral administration, fasted state
  absorption: rapidly absorbed
[3]
  % Inhibition at 10 µM, 5-HT1B (hu): 19%
[4]
  IC50: 28 µM
[4]; at 30 µM
  agonistic activity, Histamine H1: No significant agonistic activity at 30 µM
[5]
  IC50: 4.34 µM
[5]; at 300 µM
  agonistic activity, Adrenergic α1A: No significant agonistic activity at 300 µM
[6]
  binding to approximately 200 other targets: no binding to the majority of targets
[7]; 1 µM (value in brackets)
  % Inhibition at 1 µM, 5-HT7 (hu): 39%
[7]; 10 µM
  % Inhibition at 10 µM, 5-HT7 (hu): 91%
[8]; 1 µM (value in brackets)
  % Inhibition at 1 µM, 5-HT4 (gp): 34%
[8]; 10 µM
  % Inhibition at 10 µM, 5-HT4 (gp): 74%
